Measurements: patent US5942511A, “Allylthiopyridazine derivatives and process for preparing the same” (Kwon; Soon Kyoung, priority 1998, dated 1999)
Several values for one entry are separate records, joined by “and”; a condition that tells them apart may be missing. Equal values may be shown once.

How the values were obtained:
hepatocyte necrosis [1] = experiment: Effect of inhibiting hepatic disorder induced by carbon tetrachloride: hepatocyte necrosis; type: in vivo, male ICR mice; details: CCl4 model, 50 mg/kg per day oral, 3 days
Procedure: (§1) In the present invention, the inhibiting effect of the compound of formula (I) on hepatic disorder, induced by carbon tetrachloride and acetaminophene, was determined after oral administration of the novel compound according to the present invention to mouse as the experimental animal for 3 days. The degree of liver damage in respective experimental animal was determined by measuring ALT and LDH levels in blood [see, Biol. Pharm. Bull., 20, 4, 381-385, 1997; Toxicology and Applied Pharmacology, 95, 1-11, 1988], and further by removing the liver, staining (×100) the liver with hematoxylin and eosin and then observing with microscope to examine the degree of hepatocyte necrosis.
The liver protective effect of the compound according to the present invention was examined according to the known method [see, Philippe letteron et al., Biochemical Pharmacology, 39, 12, 2027-2034, 1990] as specifically described below.
The compound according to the present invention was suspended in corn oil and the resulting suspension was administered in an amount of 1.0 ml/kg. Each group was composed of 3 to 10 male ICR mice (5-6 weeks) and the test compound was orally administered for 3 days in the dose of 50 mg/kg per day. After the test compound was administered, carbon tetrachloride was intraperitoneally injected in an amount of 100 μl/kg. In this experiment, silymarin was used as the comparative compound. After 24 hours from administration of carbon tetrachloride, blood was taken from the test animal by cardiac perforation and ALT value in serum was determined. The result obtained is described in the following Table 2 (in which ALT value is represented by mean±SE). The ALT unit in serum was determined by centrifuging blood to separate serum as the supernatant, and then the separated serum were subjected to Reitman-Frankel method by means of a commercially available kit (BC101-O,P, Youngdong Pharm.). That is, DL-alanine and α-ketoglutarate were used as the substrate solution to which 2,4-dinitrophenylhydrazine was added to produce hydrazone. Then, sodium hydroxide was added to hydrazone to colorize and then the absorbance was measured at 505 nm.
(§2) In addition, liver was removed from the test animals, stained (×100) with hematoxylin and eosin and then observed by microscope. The degree of hepatocyte necrosis was evaluated according to the following 5 grades: 0 no lesion, 1 mild lesion, 2 moderate lesion, 3 severe lesion and 4 diffused lesion.

[2] = tested on: serum ALT (alanine aminotransferase); experiment: Effect of inhibiting hepatic disorder induced by acetaminophen (APAP): serum ALT; type: in vivo, male ICR mice; details: APAP 0.5 g/kg oral, compound 50 mg/kg per day oral, 3 days
Source text: (§3) In addition, the liver protective effects of the compound of the present invention can also be confirmed by acetaminophen model [see, Wang et al., Toxicology and applied Pharmacology, 136, 146-154, 1996]. Acetaminophen is rapidly metabolized by CYP2E1 to cause hepatic toxicity, which results in structural and functional change in liver cellular membrane, causing necrosis in hepatic lobule, an increase in blood ALT and LDH (lactate dehydrogenase) levels.
as §1
(§4) Effect of inhibiting hepatic disorder induced by acetaminophen (APAP)
(§5) The liver protective effect of the compound according to the present invention was examined according to the known method [see, Wang et al., Toxicology and applied Pharmacology, 136, 146-154, 1996] as specifically described below.
(§6) The compound according to the present invention was suspended in corn oil and the resulting suspension was administered in an amount of 1.0 ml/kg. Each group was composed of 3 to 10 male ICR mice (5-6 weeks) and the test compound was orally administered for 3 days in the dose of 50 mg/kg per day. After 2 hours from the last administration of the test compound, acetaminophen was orally administered in an amount of 0.5 g/kg. In this experiment, silymarin was used as the comparative compound. After 22 hours from the administration of acetaminphen, blood was taken from the individual test animal and ALT and LDH values in serum were determined. The results as obtained are described in the following Tables 4 and 5 (in which ALT and LDH values are represented by mean±SE). In addition, liver was removed from the test animals and then observed according to the same manner as Experiment 3 to evaluate the degree of hepatocyte necrosis.

[3] = tested on: serum LDH (lactate dehydrogenase); experiment: Effect of inhibiting hepatic disorder induced by acetaminophen (APAP): serum LDH; type: in vivo, male ICR mice; details: APAP 0.5 g/kg oral, compound 50 mg/kg per day oral, 3 days
Source text: as §3, §1, §4, §5, §6

hepatocyte necrosis [4] = experiment: Effect of inhibiting hepatic disorder induced by acetaminophen (APAP): hepatocyte necrosis; type: in vivo, male ICR mice; details: APAP model, 50 mg/kg per day oral, 3 days
Procedure: as §1, §2, §5, §6

radiation damage = experiment: Protective effect against radiation damage: survival of mouse; type: in vivo, male ICR mouse; details: 100 mg/kg per day, 2 days
Source text: Further, the present inventors have confirmed the protective effect of allylthiopyridazine derivative according to the present invention against radiation by administering the active compound to mouse, irradiating the radiation of 8 or 9Gy and, after a certain period, measuring the survival rate of mouse. For example, the survival rate during 30 days of 8Gy radiation can be seen from FIG. 3, and the specific experimental result is described in the following Table 7. Specifically, when 8Gy radiation is used, the survival rate during 30 days in the groups which only radiation was used was merely 48%, whereas the survival rates during 30 days in the groups to which the compounds of Examples 4 and 8 are previously administered were 76% and 70%, respectively. Therefore, it can be noted that the protective effect of the compound according to the present invention against radiation is proven to be a very significant novel discovery.
Protective effect against radiation damage
In order to confirm the protective effect of the compound of the present invention against radiation damage, the following test was conducted.
Male ICR mouse was bred in a chamber to which sterile atmosphere is supplied, at inner temperature 20-23° C. and relative humidity 50% with sufficient water and feed. When the weight of mouse reached 20-25 g, the compound of the present invention was suspended in corn oil and then administered for 2 days in the dose of 100 mg/kg (1 ml/kg) per day. After 3 hours from the last administration of the test compound, 8 or 9 Gy radiation was irradiated to mouse. Specifically, mouse was introduced into a box made of acryl which limited his movement, and then radiation produced from ^60 Co radioactive material was irradiated to whole body at the irradiating rate of 115.8 cGy/min. The dimension of acryl box was 31×31 cm^2, which is the same as the irradiating area of radiation. After 7 days of irradiation of γ-ray, mouse was sacrificed to conduct the histopathologic observation. The result of examining the survival rate during 30 days of irradiation of 8 Gy radiation is shown in FIG. 3, and the result of determining the survival rate after a certain period (10, 13 or 30 days) from irradiation of 8 or 9 Gy radiation is described in the following Table 7.

Compound: C=CCSc1ccc(OC)nn1 [Example 4, 3-methoxy-6-allylthiopyridazine]
- Degree of necrosis 0: number of animals (hepatocyte necrosis [1]; grade 0 no lesion): 0
- Degree of necrosis 1: number of animals (hepatocyte necrosis [1]; grade 1 mild lesion): 1
- Degree of necrosis 2: number of animals (hepatocyte necrosis [1]; grade 2 moderate lesion): 5
- Degree of necrosis 3: number of animals (hepatocyte necrosis [1]; grade 3 severe lesion): 2
- Degree of necrosis 4: number of animals (hepatocyte necrosis [1]; grade 4 diffused lesion): 2
- Inhibiting rate (serum ALT) [2]: 97%
- Serum ALT value ([2]; mean±SE): 186 ± 118 KA unit/l
- Inhibiting rate (serum LDH) [3]: 99.8%
- Serum LDH value ([3]; mean±SE): 703 ± 83 KA unit/l
- Degree of necrosis 0: number of animals (hepatocyte necrosis [4]; grade 0 no lesion): 5
- Degree of necrosis 1: number of animals (hepatocyte necrosis [4]; grade 1 mild lesion): 4
- Degree of necrosis 2: number of animals (hepatocyte necrosis [4]; grade 2 moderate lesion): 1
- Degree of necrosis 3: number of animals (hepatocyte necrosis [4]; grade 3 severe lesion): 0
- Degree of necrosis 4: number of animals (hepatocyte necrosis [4]; grade 4 diffused lesion): 0
- survival number (radiation damage; 10 days of 9 Gy radiation): 16/23
- survival rate (radiation damage; 10 days of 9 Gy radiation): 70%
- survival number (radiation damage; 13 days of 9 Gy radiation): 3/23
- survival rate (radiation damage; 13 days of 9 Gy radiation): 13%
- survival number (radiation damage; 30 days of 8 Gy radiation): 18/23
- survival rate (radiation damage; 30 days of 8 Gy radiation, 100 mg/kg/day): 78% and 76%
